Assay results reported in patent US10435396B2, “2-substituted indazoles, methods for producing same, pharmaceutical preparations that contain same, and use of same to produce drugs” (Bayer Pharma Aktiengesellschaft, priority 2016, dated 2019).

Molecular target: human IRAK4 (Homo sapiens (Human), UniProt Q9NWZ3)
Assay: IRAK4 kinase assay (IRAK4 TR-FRET assay)
Assay type: biochemical
Conditions: 1 mM ATP
Outline: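 GST-human IRAK4 (insect-cell expressed, ~0.2 nM) was prebound 15 min with compound, then reacted 45 min at 22° C with 1 mM ATP and 0.5 μM biotinylated peptide in HEPES pH 7.5. Phosphopeptide detected by TR-FRET (665/620 nm). IC50 from 4-parameter fit over 11 concentrations, 20 μM-0.073 nM.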

Sequence of human IRAK4 (Q9NWZ3 whole entry): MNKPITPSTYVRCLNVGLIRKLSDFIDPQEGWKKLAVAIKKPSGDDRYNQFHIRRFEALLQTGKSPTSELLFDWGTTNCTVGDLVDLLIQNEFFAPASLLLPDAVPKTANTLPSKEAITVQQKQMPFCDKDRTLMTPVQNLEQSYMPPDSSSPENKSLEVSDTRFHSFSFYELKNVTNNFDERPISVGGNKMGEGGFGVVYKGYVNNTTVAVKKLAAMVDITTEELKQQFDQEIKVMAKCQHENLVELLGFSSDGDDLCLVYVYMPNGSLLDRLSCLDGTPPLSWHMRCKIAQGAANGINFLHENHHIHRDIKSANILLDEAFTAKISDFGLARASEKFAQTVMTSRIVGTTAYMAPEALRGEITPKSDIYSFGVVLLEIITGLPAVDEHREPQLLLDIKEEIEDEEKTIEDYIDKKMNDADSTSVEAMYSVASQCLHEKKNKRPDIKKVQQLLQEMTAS

Going from `COc1cc2nn([C@@H]3C[C@@H]4C[C@H]3CN4C)cc2cc1NC(=O)c1cccc(C(F)(F)F)n1` (relative stereo) [Example 18, rel-N-{6-Methoxy-2-[(1S,4S,5R)-2-methyl-2-azabicyclo[2.2.1]hept-5-yl]-2H-indazol-5-yl}-6-(trifluoromethyl)pyridine-2-carboxamide] to `COc1cc2nn(C3CCN(C)CC3)cc2cc1NC(=O)c1cccc(C(F)(F)F)n1` [Example 4, N-[6-Methoxy-2-(1-methylpiperidin-4-yl)-2H-indazol-5-yl]-6-(trifluoromethyl)pyridine-2-carboxamide], the IC50 falls from 2 nM to 1 nM (2-fold). The second is the more potent here.

`COc1cc2nn(C3CCN(C4COC4)CC3)cc2cc1NC(=O)c1cccc(C(F)(F)F)n1` [Example 10, N-{6-Methoxy-2-[1-(oxetan-3-yl)piperidin-4-yl]-2H-indazol-5-yl}-6-(trifluoromethyl)pyridine-2-carboxamide] and `COc1cc2nn(C3CCOCC3)cc2cc1NC(=O)c1cccc(C(F)(F)F)n1` [Example 1, N-[6-Methoxy-2-(tetrahydro-2H-pyran-4-yl)-2H-indazol-5-yl]-6-(trifluoromethyl)pyridine-2-carboxamide] are the same in IC50: 3 nM for the first, 3 nM for the second.

Compared with `COc1cc2nn(C3CCOCC3)cc2cc1NC(=O)c1cccc(C(F)F)n1` [Example 23, 6-(Difluoromethyl)-N-[6-methoxy-2-(tetrahydro-2H-pyran-4-yl)-2H-indazol-5-yl]pyridine-2-carboxamide], `COc1cc2nn(C3CCOCC3)cc2cc1NC(=O)c1cccc(C(C)(C)O)n1` [Example 28, 6-(2-Hydroxypropan-2-yl)-N-[6-methoxy-2-(tetrahydro-2H-pyran-4-yl)-2H-indazol-5-yl]pyridine-2-carboxamide] is 3-fold higher in IC50: 1 nM for the first, 3 nM for the second.

First: COc1cc2nn(C3CCNCC3)cc2cc1NC(=O)c1cccc(C(F)(F)F)n1 [Example 2, N-[6-Methoxy-2-(piperidin-4-yl)-2H-indazol-5-yl]-6-(trifluoromethyl)pyridine-2-carboxamide]
Second: CC(C)(O)c1cc2nn(C3CCNCC3)cc2cc1NC(=O)c1cccc(C(F)(F)F)n1 [Example 46, N-[6-(2-Hydroxypropan-2-yl)-2-(piperidin-4-yl)-2H-indazol-5-yl]-6-(trifluoromethyl)pyridine-2-carboxamide]
The IC50 of the first is 3-fold lower: 1 nM for the first, 3 nM for the second.

Compared with `CC(C)(O)c1cc2nn(C3CCS(=O)(=O)CC3)cc2cc1NC(=O)c1cccc(C(F)(F)F)n1` [Example 44, N-[2-(1,1-Dioxidotetrahydro-2H-thiopyran-4-yl)-6-(2-hydroxypropan-2-yl)-2H-indazol-5-yl]-6-(trifluoromethyl)pyridine-2-carboxamide], `COc1cc2nn(C3CCS(=N)(=O)CC3)cc2cc1NC(=O)c1cccc(C(F)(F)F)n1` (single isomer, unassigned) [Example 21, N-[2-(1-Imino-1-oxidohexahydro-1λ^4-thiopyran-4-yl)-6-methoxy-2H-indazol-5-yl]-6-(trifluoromethyl)pyridine-2-carboxamide] is 1.7-fold lower in IC50: 5 nM for the first, 3 nM for the second. The second is the more potent here.

Compared with `COc1cc2nn(C3CCN(C(=O)CO)CC3)cc2cc1NC(=O)c1cccc(C(F)(F)F)n1` [Example 5, N-[2-(1-Glycoloylpiperidin-4-yl)-6-methoxy-2H-indazol-5-yl]-6-(trifluoromethyl)pyridine-2-carboxamide], `COc1cc2nn(C3CCN(CCO)CC3)cc2cc1NC(=O)c1cccc(C(F)(F)F)n1` [Example 13, N-{2-[1-(2-Hydroxyethyl)piperidin-4-yl]-6-methoxy-2H-indazol-5-yl}-6-(trifluoromethyl)pyridine-2-carboxamide] is 2-fold lower in IC50: 2 nM for the first, 1 nM for the second. The second is the more potent here.

First: COc1cc2nn(C3CC[S+]([O-])CC3)cc2cc1NC(=O)c1cccc(C(F)(F)F)n1 (racemic) [Example 12, rac-N-[6-Methoxy-2-(1-oxidotetrahydro-2H-thiopyran-4-yl)-2H-indazol-5-yl]-6-(trifluoromethyl)pyridine-2-carboxamide]
Second: COc1cc2nn(C3CCS(=N)(=O)CC3)cc2cc1NC(=O)c1cccc(C(F)(F)F)n1 (single isomer, unassigned) [Example 20, N-[2-(1-Imino-1-oxidohexahydro-1λ^4-thiopyran-4-yl)-6-methoxy-2H-indazol-5-yl]-6-(trifluoromethyl)pyridine-2-carboxamide]
The IC50 of the first is 2-fold lower: 2 nM for the first, 4 nM for the second. The first is the more potent here.

`COc1cc2nn(C3CCOCC3)cc2cc1NC(=O)c1cccc(N2CCOCC2)n1` [Example 24, N-[6-Methoxy-2-(tetrahydro-2H-pyran-4-yl)-2H-indazol-5-yl]-6-(morpholin-4-yl)pyridine-2-carboxamide] showed an IC50 of 2 nM.

Tested on: human PBMCs
Assay: In vitro LPS-induced cytokine production in human PBMCs
Assay type: cell-based
Conditions: 0.1 μg/ml LPS, 24 hours
Method: In Vitro LPS (Lipopolysaccharide)-Induced Cytokine Production in Human PBMCs (Peripheral Blood Mononuclear Cells)
The effect of the inventive compounds of the general formula (I) on induced cytokine production in human PBMCs was examined. Cytokine production was induced here by LPS, a TLR4 ligand, which leads to activation of the IRAK4-mediated signal path.
The human PBMCs were obtained from anti-coagulated human whole blood. To this end, 15 ml of Ficoll-Paque (Biochrom, Cat. No. L6115) were initially charged in Leucosep tubes and 20 ml of human blood were added. After centrifugation of the blood at 800 g for 15 min at room temperature, the plasma including the platelets was removed and discarded. The PBMCs were transferred into centrifugation tubes and made up with PBS (phosphate-buffered saline) (Gibco, Cat. No. 14190). The cell suspension was centrifuged at room temperature at 250 g for 10 min and the supernatant was discarded. The PBMCs were resuspended in complete medium (RPMI 1640, without L-glutamine (PAA, Cat. No. E15-039), 10% FCS; 50 U/ml penicillin, 50 μg/ml streptomycin (PAA, Cat. No. P11-010) and 1% L-glutamine (Sigma, Cat. No. G7513)).
The assay was also carried out in complete medium. The PBMCs were sown in 96-well plates at a cell density of 2.5×10^5 cells/well. The compounds according to the invention were subjected to serial dilution in a constant volume of 100% DMSO and used in the assay at 8 different concentrations in the range from 10 μM to 3 nM such that the final DMSO concentration was 0.4% DMSO. Prior to the actual stimulation, the cells were then pre-incubated therewith for 30 min. […] Cell viability was determined using the CellTiter-Glo luminescent assay (Promega, Cat. No. G7571 (G755/G756A)) in accordance with the manufacturer's instructions. The amount of secreted TNF-α in the cell culture supernatant was determined using the Human ProInflammatory 9-Plex Tissue Culture Kit (MSD, Cat. No. K15007B) in accordance with the instructions of the manufacturer. […]

`CC(C)(O)c1cc2nn(C3CCNCC3)cc2cc1NC(=O)c1cccc(C(F)(F)F)n1` [Example 46, N-[6-(2-Hydroxypropan-2-yl)-2-(piperidin-4-yl)-2H-indazol-5-yl]-6-(trifluoromethyl)pyridine-2-carboxamide] was tested, and the “activity (secreted TNF-α, LPS-induced cytokine production in human PBMCs)” value was ≤ 1 µM.
`CC(C)(O)c1cc2nn(C3CCS(=O)(=O)CC3)cc2cc1NC(=O)c1cccc(C(F)(F)F)n1` [Example 44, N-[2-(1,1-Dioxidotetrahydro-2H-thiopyran-4-yl)-6-(2-hydroxypropan-2-yl)-2H-indazol-5-yl]-6-(trifluoromethyl)pyridine-2-carboxamide] was tested, and the “activity (secreted TNF-α, LPS-induced cytokine production in human PBMCs)” value was ≤ 1 µM.
